Patent US20090247495A1, “CU[…] AND USES THEREOF” (priority 2007, published 2009)
Values after ≈ are worked out from the molar mass of the structure shown.

What was measured:
[1] = tested on: colon cancer cell line (HT29); assay: MTT cell cytotoxicity assay, HT29; assay type: cell-based, human; settings: 48 hours
Protocol: (§1) Three human cancer cell lines (HepG2(liver), HT29(colon) and MCF-7(breast)) were purchased from American Type Culture Collection (ATCC, Manassas, Va., USA). The cells were cultured in RPMI 1640 medium supplemented with 5% (v/v) fetal bovine serum (FBS) and 100 units/ml penicillin and streptomycin (Invitrogen Life Technologies) in a humidified 5% CO2 atmosphere at 37° C.
The cytotoxic effect of CuB and CuD on these three cancer cell lines were determined using MTT (3-[4,5-dimethylthiazol-2-yl]-2,5-diphenyl tetrazolium bromide) labeled cell cytotoxicity assay. A total of 1×10^4 cells were seeded into a 96-well plate for 24 hours prior to cucurbitacin B (CuB) or cucurbitacin D (CuD) treatment. They were then treated with different dosages of CuB/CuD for 48 hours. After the treatment, 20 μl of MTT (5 mg/ml) was added to each well and incubated for 4 hrs. Then the medium was discarded and 100 μl of dimethyl sulfoxide was added. The absorbance at 570 nm was then measured by using FLUOstar OPTIMA equipment (BMG, LABTECH GmbH, Germany). The percentage of inhibition against different dosages of CuB/CuD were plotted using the Prism software and the 50% inhibition concentration (IC50) were obtained.

melanoma = assay: SRB growth inhibition, melanoma lines of the NCI panel; assay type: cell-based, human; settings: 48 hours
From the text: Human cancer cell lines from the 59-NCI Cancer Cell Line Panel including leukemia, melanoma and cancers of breast, brain, colon, lung, ovary, prostate and kidney, were purchased from the National Institute of Cancer (USA). The growth inhibition (GI50) of these cell lines treated with cucurbitacin B and cucurbitacin D in various concentrations was investigated.
59 human cancer cell lines were maintained in RPMI 1640 (Invitrogen Life Technologies, CA, USA) supplemented with 5% Fetal Bovine Serum, 2 mM L-glutamine and 1% Penicillin/Streptomycin (Invitrogen Life Technologies) at 37° C. with 5% CO2. All chemicals were purchased from Sigma (St. Louis, Mo., USA) unless specified otherwise.
Sulforhodamine B (SRB) assay was applied to determine the cytostatic effect of cucurbitacin B and cucurbitacin D. SRB is a dye that binds to cellular proteins and will be dissolved in base. The biomass of total protein can be measured at 520 nm using a plate reader.
Cells were inoculated into 96-well microtiter plates including “Time zero” (Tz) plates in 100 μl at cell concentrations from 5000 to 40,000 cells per well according to NCI guideline. The cells were incubated at 37° C. with 5% CO2 for 24 hours. […] Bound SRB was solubilized with 100-200 ul per well of 10 mM trizma base and absorbance was measured at a wavelength of 520 nm. The percentage of growth inhibition was calculated as follows: […]

hsp27 = assay: Western blot of hsp27 in HepG2, HT29 and MCF-7 cells; assay type: cell-based, human
Protocol: (§2) The human cancer cells line were serum starved for 18 hours prior to CuB/CuD treatment. Cells were incubated in a 6-well plate filled with 5 ml growth medium (RPMI with 0.2% FBS and 1% PS) at the cell density of 1×10^5 cells/ml, in the presence or absence of two different dosages of CuB/CuD for various time intervals. The drug treatment was terminated by centrifugation at 1,500 rpm for 5 minutes and the cells were rinsed twice with phosphate-buffered saline and lysed at 4° C. in a lysis buffer containing 50 mM Tris-HCl, pH7.5, 100 mM NaCl, 5 mM EDTA, 40 mM NaP2O7, 1% Triton X-100, 1 mM dithiothreitol, 200 μM Na3VO4, 100 uM phenylmethysufonyl fluoride, 2 μg/ml leupeptin, 4 μg/ml aprotinin and 0.7 μg/ml pepstatin. The insoluble protein lysate were removed by centrifugation for 10 minutes at 13,000 rpm. Fifteen micrograms of protein lysate was resolved using 10% SDS-polyacryamide gel electrophoresis (PAGE) and then subjected to western blot anaylsis. Western blots were performed with anti-Stat3, anti-Erk1/2 and anti-hsp27 antibodies specific for phosphor- and total Stat3, Erk and hsp27 proteins. The protein bands were then visualized with the Enhanced Chemiluminescence Plus (ECL Plus) detection system (Amersham). • 6.2.8.1 Inhibition Effect Cucurbitacin B/Cucurbitacin D on Stat3 Activation in HepG2 and HT29 Cells
(§3) Cells were incubated either with CuB or CuD (25 ug/ml or the dosage of IC50) for various time intervals (5, 10 or 30 mins, 1 or 4 hours). The Stat3 activation was detected by western blot.

PARP = assay: Western blot of PARP cleavage in HL60 cells; assay type: cell-based, human
Protocol: (§4) Control cells, as well as cells treated with cucurbitacin B or cucurbitacin D, were harvested and collected by centrifugation. Whole cell extracts were then prepared by lysing the cells using 4% sodium dodecyl sulfate (SDS) gel sample buffer. Cell extracts were boiled for 10 min and chilled on ice, subjected to 12% SDS-polyacrylamide gel electrophoresis, and transferred to a PVDF membrane. Each membrane was cut into to two pieces with one piece incubated at 4° C. overnight with antibodies against cell cycle signaling proteins, such as ERK, phosphorlated-ERK, p38, phosphorlated-p38, Cyclin E, Retinoblastoma, phosphalated-Retinoblastoma and c-myc, and apoptotic protein (PARP). β-actin was used as a control for protein loading. All antibodies were obtained from Cell signaling Technologies (USA). Then membranes were incubated at 37° C. for 1 h with secondary antibody conjugated with peroxidase, and the signal was detected using chemiluminescence detection reagent. The relative protein level was calculated as the ratio of the optical density of the protein of interest to that of β-actin.

MAPK signaling pathway = assay: Western blot of MAPK / cell cycle signaling proteins in HL60 cells; assay type: cell-based, human
Protocol: as §4

[2] = tested on: Human cancer cell lines from the 59-NCI Cancer Cell Line Panel; assay type: cell-based
Erk1/2 = assay: Western blot of Erk1/2 in HepG2, HT29 and MCF-7 cells; assay type: cell-based, human
Protocol: as §2, §3

[3] = tested on: Human cancer cell lines from the 59-NCI Cancer Cell Line Panel; assay: Apoptosis (Annexin V-FITC / PI) by flow cytometry, 18 selected NCI panel cell lines; assay type: cell-based; settings: 48 hours; GI50, ½ GI50 and ¼ GI50
Protocol: Apoptosis is the important mechanism for cell death in normal cells. In cancer cells, this mechanism fails and cells proliferate without control. Human cancer cell lines from the 59-NCI Cancer Cell Line Panel including leukemia, melanoma and cancers of breast, brain, colon, lung, ovary, prostate and kidney were purchased from the National Institute of Cancer. […] They were treated with cucurbitacin B and cucurbitacin D at three different concentrations to elucidate their ability to induce any changes in cell cycle.
Cancer cell lines were maintained in RPMI 1640 supplemented with 5% Fetal Bovine Serum, 2 mM L-glutamine and 1% Penicillin/Streptomycin at 37° C. with 5% CO2. Cells were inoculated into tissue culture flask at cell concentrations from 50000 to 400,000 cells/ml according to the NCI guideline. The cells were incubated at 37° C. with 5% CO2 for 24 hours. Cucurbitacin B and cucurbitacin D were added to the cells of final concentrations ranging from 6 to 350 nM (GI50, ½ GI50 and ¼ GI50 of particular cell line) for 48 hours at 37° C. with 5% CO2. Cells (3×10^5) were then harvested and stained with 5 μl Annexin V-FITC and 10 μl propidium iodine (Becton Dickinson, CA, USA) for 15 minutes at room temperature. Ten thousands events were collected by the FACScaliber and the percentage of different cell populations were analyzed by the CellQuest™ software (Becton Dickinson).

Stat3 = assay: Western blot of Stat3 activation in HepG2, HT29 and MCF-7 cells; assay type: cell-based, human
[4] = tested on: Human liver cancer cell lines HepG2; assay: MTT cytotoxicity assay, matrix combination of CuB and Sb on liver cancer cells; assay type: cell-based; settings: HepG2, 2 days, CuB 0 μM
Protocol: as §1, with “Human liver” for “Three human”, “HepG2 was” for “(HepG2(liver), HT29(colon) and MCF-7(breast)) were”
A total of 1×10^4 cells were seeded into a 96-well plate for 24 hours prior to drug treatment. They were then treated with different dosages (a multiple of 20-fold of IC50 values) of CuB or Sb for 48 hours. After the treatment, 20 μl of MTT (5 mg/ml) was added to each well and incubated for 4 hrs. Then the medium was discarded and 100 μl of dimethyl sulfoxide was added. The absorbance at 570 nm was then measured by using FLUOstar OPTIMA equipment (BMG, LABTECH GmbH, Germany). The percentage of inhibition against different dosages of CuB or Sb were plotted using the Prism software and the 50% inhibition concentration (IC50) were obtained.
The cells were then treated for 2 days and the % inhibition of growth is determined.
The excess over Bliss additivism may be calculated using the following formula and shown in Table 4: • Bliss Additivism: Combined response=CuB+Sb−(CuB)(Sb) where each effect is expressed as fractional inhibition between 0 and 1 • Excess over additivism=observed response−combined response

Compound: CC(C)(O)/C=C/C(=O)[C@](C)(O)[C@H]1[C@H](O)C[C@@]2(C)[C@@H]3CC=C4[C@@H](C[C@H](O)C(=O)C4(C)C)[C@]3(C)C(=O)C[C@]12C [cucurbitacin D]
- IC50 [1]: 0.27 µg/mL (≈ 0.523 µM)
- GI50 (melanoma): 60 nM
- Hsp27 activation (hsp27; HT29, 10 minutes): significant up-regulation
- Hsp27 activation (hsp27; HepG2, 30 minutes): significant up-regulation
- Hsp27 activation (hsp27; MCF-7, 4 hours): significant up-regulation
- apoptosis marker PARP (PARP): cleavage of PARP
- regulation of ERK, cyclin E, retinoblastoma phosphorylation and c-myc (MAPK signaling pathway): ERK activation, followed by cyclin E down-regulation, inhibition of retinoblastoma's phosphorylation, and ultimately down-regulation of c-myc
- cell lines with G2/M arrest [2]: 9 out of 18
- cell cycle effect ([2]; SF-295, 48 hours): G2/M arrest and endoreduplication
- expression of Erk1/2 (Erk1/2; HT29, 5 minutes of treatment): up-regulated the expression of Erk1/2 significantly
- expression of Erk1/2 (Erk1/2; HepG2, 30 minutes of treatment): up-regulated the expression of Erk1/2 significantly
- Erk activation (Erk1/2; MCF-7 cells, 5 minutes): significant Erk activation
- cell lines in which apoptosis was induced [3]: 11 out of 18
- Stat3 activation (Stat3; HepG2 cells and HT29 cells, 25 ug/ml, 30 minutes): inhibited significantly
- Stat3 activation (Stat3; MCF-7 cells): no significant change

Compound: CNC(=O)c1cc(Oc2ccc(NC(=O)Nc3ccc(Cl)c(C(F)(F)F)c3)cc2)ccn1 [sorafenib, reference compound]
- % inhibition ([4]; Sb 0.1 μM): 4.61%
- Excess over Highest Single Agent Model ([4]; Sb 0.1 μM): 0
- % inhibition ([4]; Sb 0.3 μM): 27.69%
- Excess over Highest Single Agent Model ([4]; Sb 0.3 μM): 0
- % inhibition ([4]; Sb 0.9 μM): 39.10%
- Excess over Highest Single Agent Model ([4]; Sb 0.9 μM): 0
- % inhibition ([4]; Sb 2.7 μM): 35.35%
- Excess over Highest Single Agent Model ([4]; Sb 2.7 μM): 0
- % inhibition ([4]; Sb 8.4 μM): 82.28%
- Excess over Highest Single Agent Model ([4]; Sb 8.4 μM): 0
